Converted amounts (≈) assume the structure as drawn. Read-outs that look alike come from different tables or passages of the source.
What was measured:
[1] = Stability under heat and moisture, 40°C/75% RH (residual content by HPLC); assay type: physicochemical
Method: (§1) Contents of the free base of 3-[({1-[(2-amino-9H-purin-9-yl)methyl]cyclopropyl}oxy)methyl]-8,8-dimethyl-3,7-dioxo-2,4,6-trioxa-3λ5-phosphanon-1-yl-pivalate and salts thereof were measured by high performance liquid chromatography (HPLC). The specific measuring conditions are fisted below:
After 1, 4 and 8 weeks, 5 mg of each sample was taken, dissolved in a solvent mixture of tetrahydrofuran/water (1/1, v/v), and analyzed by HPLC.

[2] = Stability at 60°C (residual content by HPLC); conditions: for residual content: 60°C (about 4% RH)
Method: as §1
After 1 or 2, 4 and 8 weeks, each sample in the glass vial was taken, dissolved in a solvent mixture of tetrahydrofuran/water (1/1, v/v), and analyzed by HPLC.

[3] = Solubility test at various pH; assay type: physicochemical; conditions: for solubility at 1.5 h: phosphate buffer / phosphoric acid solution, aqueous buffer, thermodynamic from solid
Method: 5˜23 mg each of the maleic acid monosalt of the Example and the free base of Comparative Example 1 was placed into a glass bottle. 500 μl each of the various phosphate buffer solution and phosphoric acid solution having a specific pH value was added thereto. The glass bottle was placed in water to maintain a constant temperature of 25° C., and the mixture was stirred for 1.5 h. After filtration, the content in the filtrate was analyzed by HPLC, and the pH of the solution was measured. The measured pH values and the solubilities of the maleic acid monosalt and the free base are represented in the following Table 3.

[4] = system: hepatitis B virus; experiment: In vitro anti-HBV activity, HBV DNA by real-time PCR in HepG2.2.15 culture medium; assay type: cell-based
Method: (§2) The hepatitis B virus-producing cell line, HepG2.2.15 (M. A. Shels, et al., Proc. Natl. Acad. Sci. USA 84, 1005 (1987)), was cultured in DMEM (Dulbecco's Modified Eagle Media; Life Technologies) containing 10% FBS (Fetal Bovine Serum), 1% ABAM (Antibiotic-Antimycotic) and Geneticin whose final concentration was measured as 400 μg/ml. The cells were cultured to confluency, treated with trypsin, and distributed to 96 well microplate in a density of 2×10^4 cells/well. After 24 h, the medium was changed and the compound treatment was carried out in intervals of 2 days by serially diluting the free base of Comparative Example 1 and the maleic acid monosalt of Example by three fold so that the final concentration was 50 μM to 8 nM in 200 μl of medium. Every test samples were duplicated. After 8 days from the first drug treatment, the culture medium was collected, and the cells were lysed by heating the cells to 100° C. for 10 min. In order to minimize the substances that interfere with the DNA amplification reaction, the culture medium was diluted by ten fold using water. The control group, cell culture medium which was not treated with the drug, was treated in the same manner as the above.

[5] = system: HepG2.2.15; experiment: Cytotoxicity determination (MTT); conditions: for cytotoxicity: HepG2.2.15
Method: as §2
(§3) CC50 value of the drug was determined by removing the medium, adding 100 μl of 0.1 mg/ml MTT (Thiazolyl Blue Tetrazolium Bromide: Sigma) to the residue, dyeing the residue for 2 h at 37° C., adding 100 μl of DMSO (Dimethyl Sulfoxide: Sigma), dissolving the resulting mixture by agitating for 2 h at room temperature, and measuring the absorbance at 540 nm.

[6] = Cytotoxicity determination (MTT); conditions: human
Method: as §2, §3

[7] = Hygroscopicity (no method described); assay type: physicochemical

SMILES: CC(C)(C)C(=O)OCOP(=O)(COC1(Cn2cnc3cnc(N)nc32)CC1)OCOC(=O)C(C)(C)C [Comparative Example 1, Free Base of 3-[({1-[(2-amino-9H-purin-9-yl)methyl]cyclopropyl}oxy)methyl]-8,8-dimethyl-3,7-dioxo-2,4,6-trioxa-3λ5-phosphanon-1-yl-pivalate]
- residual content ([1]; Week 1): 99.0%
- residual content ([1]; Week 4): 91.3%
- residual content ([1]; Week 8): 8.4%
- residual content ([2]; Week 1): 98.2%
- residual content ([2]; Week 4): 79.2%
- residual content ([2]; Week 8): 1.2%
- residual content ([2]; Week 8, listed as free base): about 1%
- solubility ([3]; pH 6 or more): ≤ 1 mg/mL
- solubility ([3]; pH of 2 or less): ≥ 36 mg/mL
- solubility ([3]; solution pH 2.0, 25°C): 36.5 mg/mL (≈ 69.2 mM)
- solubility ([3]; solution pH 3.2, 25°C): 8.3 mg/mL (≈ 15.7 mM)
- solubility ([3]; solution pH 4.0, 25°C): 1.7 mg/mL (≈ 3.22 mM)
- solubility ([3]; solution pH 6.5, 25°C): 0.8 mg/mL (≈ 1.52 mM)
- EC50 ([4]; HepG2.2.15, 8 days, HBV DNA in culture medium, read-out: EC50): 1.1 ± 0.1 µM
- cytotoxicity [5]: about 7 m M
- CC50 ([5]; HepG2.2.15, MTT): 7.9 ± 3 µM

SMILES: CC(C)(C)C(=O)OCOP(=O)(COC1(Cn2cnc3cnc(N)nc32)CC1)OCOC(=O)C(C)(C)C.O=C(O)/C=C\C(=O)O.O=C(O)/C=C\C(=O)O.O=C(O)/C=C\C(=O)O [Comparative Example 2, 3-[({1-[(2-amino-9H-purin-9-yl)methyl]cyclopropyl}oxy)methyl]-8,8-dimethyl-3,7-dioxo-2,4,6-trioxa-3λ5-phosphanon-1-yl-pivalate maleic acid trisalt]
- residual content ([1]; Week 1): 84.4%
- residual content ([1]; Week 4): 0.0%
- residual content ([1]; Week 8): 0.0%

SMILES: CC(C)(C)C(=O)OCOP(=O)(COC1(Cn2cnc3cnc(N)nc32)CC1)OCOC(=O)C(C)(C)C.Cc1ccc(S(=O)(=O)O)cc1 [Comparative Example 3, 3-[({1-[(2-amino-9H-purin-9-yl)methyl]cyclopropyl}oxy)methyl]-8,8-dimethyl-3,7-dioxo-2,4,6-trioxa-3λ5-phosphanon-1-yl-pivalate p-toluenesulfonic acid monosalt]
- residual content ([1]; Week 1): 96.5%
- residual content ([1]; Week 4): 71.0%

SMILES: CC(C)(C)C(=O)OCOP(=O)(COC1(Cn2cnc3cnc(N)nc32)CC1)OCOC(=O)C(C)(C)C.Cc1ccc(S(=O)(=O)O)cc1.Cc1ccc(S(=O)(=O)O)cc1 [Comparative Example 4, 3-[({1-[(2-amino-9H-purin-9-yl)methyl]cyclopropyl}oxy)methyl]-8,8-dimethyl-3,7-dioxo-2,4,6-trioxa-3λ5-phosphanon-1-yl-pivalate p-toluenesulfonic acid disalt]
- residual content ([1]; Week 1): 0.0%
- residual content ([1]; Week 4): 0.0%
- residual content ([1]; Week 8): 0.0%

SMILES: CC(C)(C)C(=O)OCOP(=O)(COC1(Cn2cnc3cnc(N)nc32)CC1)OCOC(=O)C(C)(C)C.CS(=O)(=O)O [Comparative Example 5, 3-[({1-[(2-amino-9H-purin-9-yl)methyl]cyclopropyl}oxy)methyl]-8,8-dimethyl-3,7-dioxo-2,4,6-trioxa-3λ5-phosphanon-1-yl-pivalate methanesulfonic acid monosalt]
- residual content ([1]; Week 1): 50.7%
- residual content ([1]; Week 4): 0.0%
- residual content ([1]; Week 8): 0.0%

SMILES: CC(C)(C)C(=O)OCOP(=O)(COC1(Cn2cnc3cnc(N)nc32)CC1)OCOC(=O)C(C)(C)C.O=S(=O)(O)c1ccc2ccccc2c1 [Comparative Example 6, 3-[({1-[(2-amino-9H-purin-9-yl)methyl]cyclopropyl}oxy)methyl]-8,8-dimethyl-3,7-dioxo-2,4,6-trioxa-3λ5-phosphanon-1-yl-pivalate naphthalenesulfonic acid monosalt]
- residual content ([2]; Week 2): 74.7%

SMILES: CC(C)(C)C(=O)OCOP(=O)(COC1(Cn2cnc3cnc(N)nc32)CC1)OCOC(=O)C(C)(C)C.CCS(=O)(=O)O [Comparative Example 7, 3-[({1-[(2-amino-9H-purin-9-yl)methyl]cyclopropyl}oxy)methyl]-8,8-dimethyl-3,7-dioxo-2,4,6-trioxa-3λ5-phosphanon-1-yl-pivalate ethanesulfonic acid monosalt]
- residual content ([2]; Week 1): 0.4%

SMILES: CC(C)(C)C(=O)OCOP(=O)(COC1(Cn2cnc3cnc(N)nc32)CC1)OCOC(=O)C(C)(C)C.O=C(O)/C=C\C(=O)O [Example, 3-[({1-[(2-amino-9H-purin-9-yl)methyl]cyclopropyl}oxy)methyl]-8,8-dimethyl-3,7-dioxo-2,4,6-trioxa-3λ5-phosphanon-1-yl-pivalate maleic acid monosalt]
- residual content ([1]; Week 1): 99.4%
- residual content ([1]; Week 4): 99.3%
- residual content ([1]; Week 8): 98.3%
- residual content ([2]; Week 1): 99.4%
- residual content ([2]; Week 4): 99.2%
- residual content ([2]; Week 8): 98.2%
- thermal stability (decomposition, in words) ([2]; 60°C, stressed condition): remained almost intact without decomposition for up to 8 weeks
- solubility relative to the free base ([3]; pH 6.5): three times higher
- solubility at 1.5 h ([3]; 25 °C, pH range of 2 to 6.5): 3 to 7 mg/mL
- solubility at 1.5 h ([3]; solution pH 2.0, 25°C): 5.6 mg/mL
- solubility at 1.5 h ([3]; solution pH 3.2, 25°C): 7 mg/mL
- solubility at 1.5 h ([3]; solution pH 4.0, 25°C): 4.2 mg/mL
- solubility at 1.5 h ([3]; solution pH 6.5, 25°C): 2.9 mg/mL
- EC50 ([4]; Hepatitis B virus, HepG2.2.15, 192 h): 1.2 ± 0.3 µM
- EC50 ([4]; Hepatitis B virus, HepG2.2.15, read-out: activity (in vitro, summary in text)): ~1 µM
- CC50 at 8 days [6]: 6.8 ± 2.4 µM
- cytotoxicity [5]: about 7 m M
- hygroscopicity [7]: non-hygroscopic

— patent publication US20090325904A1, “MALEIC ACID MONOSALT OF ANTIVIRAL AGENT AND PHARMACEUTICAL COMPOSITION CONTAINING THE SAME” (LG Life Sciences Ltd., priority 2007, published 2009)
